# Results: patent publication US6858638B2, “Substituted indazoles, compositions containing them, method of production and use” (Aventis Pharma S.A., priority 2002, dated 2005)
# How the values were obtained:
# Assay type in all cases: biochemical
# human KDR enzyme = molecular target: T1, human KDR enzyme (Homo sapiens, UniProt P35968); test: KDR substrate (PLCγ) phosphorylation, scintillation assay; conditions: 10 μM; read-out: KDR % inhib at 10 μM
# T1 construct: The cytoplasmic domain of the human KDR enzyme; GST; made in house; host or cells: SF21 insect cells (baculovirus)
# T1 sequence (P35968 786-1356 limits assumed): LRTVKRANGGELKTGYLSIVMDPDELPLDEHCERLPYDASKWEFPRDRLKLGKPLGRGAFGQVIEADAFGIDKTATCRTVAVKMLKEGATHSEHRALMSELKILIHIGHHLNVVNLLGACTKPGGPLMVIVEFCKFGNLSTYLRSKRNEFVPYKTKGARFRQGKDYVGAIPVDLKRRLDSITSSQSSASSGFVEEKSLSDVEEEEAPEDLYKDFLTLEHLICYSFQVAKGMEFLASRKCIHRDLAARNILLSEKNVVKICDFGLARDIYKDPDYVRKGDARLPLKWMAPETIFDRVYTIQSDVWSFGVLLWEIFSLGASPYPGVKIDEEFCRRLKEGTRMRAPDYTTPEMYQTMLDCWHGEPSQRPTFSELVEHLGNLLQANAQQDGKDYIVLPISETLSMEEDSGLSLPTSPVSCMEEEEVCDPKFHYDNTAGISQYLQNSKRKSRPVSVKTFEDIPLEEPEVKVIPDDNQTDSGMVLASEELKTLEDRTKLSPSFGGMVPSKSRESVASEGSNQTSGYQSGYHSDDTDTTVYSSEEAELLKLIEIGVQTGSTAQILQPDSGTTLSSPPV
# Summary of the method: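 Values are percent inhibition relative to the compound-free control, read by scintillation counting of 33P incorporation after EDTA stop. Baculovirus/SF21-expressed GST-KDR cytoplasmic domain (100 ng) acted for 1 h at 37 °C in pH 7.2 MOPS kinase buffer. The substrate was GST-PLCγ SH2-SH3 (2 μg), added with γ33P-ATP and 2 μM unlabeled ATP.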
# Aurora2 kinase = molecular target: T2, Aurora2 kinase (Homo sapiens, UniProt O14965); test: Aurora2 kinase radioactivity scintillation assay using nickel chelate (NuMA substrate); conditions: 10 μM; read-out: Aurora2 % inhib at 10 μM
# T2 construct: A complete recombinant Aurora2 enzyme; His tag (N); made in house; host or cells: E. coli
# T2 sequence (O14965 1-403): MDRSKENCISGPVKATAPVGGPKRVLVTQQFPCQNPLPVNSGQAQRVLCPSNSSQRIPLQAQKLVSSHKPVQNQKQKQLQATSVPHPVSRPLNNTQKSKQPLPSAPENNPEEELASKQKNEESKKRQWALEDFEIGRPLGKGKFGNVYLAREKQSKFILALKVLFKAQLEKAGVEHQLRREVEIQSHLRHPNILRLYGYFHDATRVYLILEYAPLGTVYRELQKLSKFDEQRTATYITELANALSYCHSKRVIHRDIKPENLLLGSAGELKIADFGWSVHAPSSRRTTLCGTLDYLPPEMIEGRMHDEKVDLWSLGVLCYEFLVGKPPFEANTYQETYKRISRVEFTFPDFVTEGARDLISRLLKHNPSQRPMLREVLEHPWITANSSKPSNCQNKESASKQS
# Summary of the method: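 Read-out is 33P incorporation into His-NuMA (Q1687-H2101, 0.5 μM) captured on nickel chelate, after 30 min at 37 °C with 0.02 μM His-Aurora2 and 1 μM ATP. Expressed as percentage inhibition of uncompounded control activity, background subtracted.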
# [1] = molecular target: T3, human IGF1R cytoplasmic domain (Homo sapiens, UniProt P08069); test: IGF1R autophosphorylation inhibition, time resolved fluorescence (HTRF) assay; conditions: 10 μM; read-out: IGF1R % inhib at 10 μM
# T3 construct: The human IGF1R cytoplasmic domain was cloned; made in house; host or cells: SF21 insect cells (baculovirus)
# T3 sequence (P08069 960-1367 limits assumed): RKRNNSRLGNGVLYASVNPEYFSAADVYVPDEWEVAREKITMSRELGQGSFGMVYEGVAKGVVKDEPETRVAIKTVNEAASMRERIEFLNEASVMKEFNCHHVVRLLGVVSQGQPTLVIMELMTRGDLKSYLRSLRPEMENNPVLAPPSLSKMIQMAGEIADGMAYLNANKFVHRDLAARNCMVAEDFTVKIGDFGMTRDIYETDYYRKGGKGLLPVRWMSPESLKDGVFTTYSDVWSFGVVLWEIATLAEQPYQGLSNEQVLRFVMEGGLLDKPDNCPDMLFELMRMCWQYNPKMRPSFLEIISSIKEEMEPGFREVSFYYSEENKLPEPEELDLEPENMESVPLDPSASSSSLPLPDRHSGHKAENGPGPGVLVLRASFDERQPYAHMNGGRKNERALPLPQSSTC
# Summary of the method: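 GST-tagged human IGF1R cytoplasmic domain from SF21 cells incubated with compound in 50 mM Hepes pH 7.5, 5 mM MnCl2, 50 mM NaCl, […] ATP. Autophosphorylation detected by HTRF (Eu-K anti-phosphotyrosine, XL665 anti-GST) after EDTA/KF stop; percentage inhibition versus no-compound control.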
inhibition at 10 µM (human KDR enzyme),inhibition at 10 µM (Aurora2 kinase),inhibition at 10 µM [1],Structure (SMILES)
7%,86%,,"CS(=O)(=O)c1ccccc1S(=O)(=O)Nc1ccc2[nH]nc(Cl)c2c1 [Example 1, N-(3-Chloro-1H-indazol-5-yl)-2-methylsulfonylbenzenesulfonamide]"
22%,46%,,"O=S(=O)(Nc1ccc2[nH]nc(Cl)c2c1)c1cccc(F)c1 [Example 3, N-(3-Chloro-1H-indazol-5-yl)-3-fluorobenzenesulfonamide]"
85%,95%,,"O=S(=O)(Nc1ccc2[nH]nc(-c3ccccc3)c2c1)c1cccc(F)c1 [Example 6, 3-Fluoro-N-(3-phenyl-1H-indazol-5-yl)benzenesulfonamide]"
70%,97%,,"CS(=O)(=O)c1ccccc1S(=O)(=O)Nc1ccc2[nH]nc(-c3ccccc3)c2c1 [Example 7, 2-Methylsulfonyl-N-(3-phenyl-1H-indazol-5-yl)benzenesulfonamide]"
81%,59%,,"O=S(=O)(Nc1ccc2[nH]nc(-c3ccccc3)c2c1)c1ccc(Cl)c(Cl)c1 [Example 8, 3,4-Dichloro-N-(3-phenyl-1H-indazol-5-yl)benzenesulfonamide]"
18%,61%,,"Cc1n[nH]c2ccc(NS(=O)(=O)c3cccc(F)c3)cc12 [Example 9, 3-Fluoro-N-(3-methyl-1H-indazol-5-yl)benzenesulfonamide]"
20%,90%,,"Cc1n[nH]c2ccc(NS(=O)(=O)c3ccccc3S(C)(=O)=O)cc12 [Example 10, 2-Methylsulfonyl-N-(3-methyl-1H-indazol-5-yl)benzenesulfonamide]"
0%,76%,,"CS(=O)(=O)c1ccccc1S(=O)(=O)Nc1ccc2[nH]ncc2c1 [Example 13, 2-Methylsulfonyl-N-(1H-indazol-5-yl)benzenesulfonamide]"
24%,95%,34%,"Nc1n[nH]c2ccc(NS(=O)(=O)c3cccc(F)c3)cc12 [Example 26, N-(3-Amino-1H-indazol-5-yl)-3-fluorobenzenesulfonamide]"
85%,100%,96%,"CS(=O)(=O)c1ccccc1S(=O)(=O)Nc1ccc2[nH]nc(-c3ccc(Cl)cc3)c2c1 [Example 30, N-[3-(4-Chlorophenyl)-1H-indazol-5-yl]-2-methylsulfonylbenzenesulfonamide]"
87%,92%,93%,"COc1ccc(-c2n[nH]c3ccc(NS(=O)(=O)c4ccccc4S(C)(=O)=O)cc23)cc1 [Example 32, N-[3-(4-Methoxyphenyl)-1H-indazol-5-yl]-2-methylsulfonylbenzenesulfonamide]"
68%,89%,94%,"CS(=O)(=O)c1ccccc1S(=O)(=O)Nc1ccc2[nH]nc(-c3ccc(F)cc3)c2c1 [Example 33, N-[3-(4-Fluorophenyl)-1H-indazol-5-yl]-2-methylsulfonylbenzenesulfonamide]"
23%,80%,92%,"CS(=O)(=O)c1ccccc1S(=O)(=O)Nc1ccc2[nH]nc(NCc3ccccc3)c2c1 [Example 36, N-(3-Benzylamino-1H-indazol-5-yl)-2-methylsulfonylbenzenesulfonamide]"
8%,36%,51%,"CNc1n[nH]c2ccc(NS(=O)(=O)c3ccccc3S(C)(=O)=O)cc12 [Example 37, N-(3-Methylamino-1H-indazol-5-yl)-2-methylsulfonylbenzenesulfonamide]"
20%,81%,72%,"CS(=O)(=O)c1ccccc1S(=O)(=O)Nc1ccc2[nH]nc(N)c2c1 [Example 39, N-(3-Amino-1H-indazol-5-yl)-2-methylsulfonylbenzenesulfonamide]"
